# Experiments:
# [1] = Integrated analysis of efficacy from completed clinical studies: LDL-C; assay type: in vivo, human; conditions: inclusive of all background therapies
# Text: Gemcabene calcium salt hydrate Crystal Form 1 given on top of steady-state statins has shown a statin-intensity dependent effect. […] Statins inhibit cholesterol synthesis and upregulate LDL receptor expression to effect LDL-C reduction.
# [2] = Solubility of gemcabene calcium salt hydrate Crystal Form 1 by solvent addition method; assay type: physicochemical; conditions: thermodynamic from solid
# Protocol: Approximately 20 mg of gemcabene calcium Crystal Form 1 was added to 5×2 mL vials. The solubility in 5 solvents was tested using a solvent addition method. Solvents included acetone, ethanol, ethyl acetate, t-butyl methyl ether (t-BME) and water. Solvent was added in 5 volume (100 μL) aliquots until either dissolution or 2 mL in total had been added. Between each addition, samples were heated to 60° C. (40° C. for acetone and t-BME). Any solids remaining after 24 hours at ambient were analyzed by X-ray powder diffraction (XRPD).
# [3] = system: patients with familial hypercholesterolemia (FH); assay: Open-label escalating-dose study (300, 600, 900 mg) in familial hypercholesterolemia patients on stable lipid-lowering therapy: LDL-C; assay type: in vivo, human; conditions: Patient 1
# Protocol: A study was performed to evaluate the efficacy of film-coated Tablet D in treating patients with familial hypercholesterolemia (FH) and who are on stable, lipid-lowering therapy. Male and female patients ≥17 years of age who had been diagnosed with FH by genetic confirmation or a clinical diagnosis based on either (1) a history of an untreated LDL-C concentration ≥500 mg/dl (12.92 mmol/L) together with either appearance of xanthoma before 10 years of age, or evidence of familial hypercholesterolemia in both parents or (2) LDL-C >300 mg/dl (7.76 mmol/L) on maximally tolerated lipid-lowering drug therapy were enrolled in the study.
# The study was a 3-period, 3-treatment study using successively escalating doses of 300 mg, 600 mg, and 900 mg gemcabene calcium salt hydrate Crystal Form 1 (PSD90=52 μm). All patients were on each of the successive doses for 4 weeks at a time. Patients remained on their stable, lipid-lowering therapy throughout the study.
# Each patient received one 300 mg gemcabene calcium salt hydrate Crystal Form 1 tablet (film-coated Tablet D) orally QD (alternatively written as q.d.; meaning “once a day”) for 4 weeks. The same patients then received 600 mg gemcabene calcium salt hydrate Crystal Form 1 orally QD for 4 weeks. The 600 mg dose consisted of two 300-mg tablets (film-coated Tablet D×2). […]
# LDL-C values were measured after the patient had been administered film-coated Tablet D for 2 weeks for each dosing level and on the last day of each dose. For each escalated dose, percent change from baseline in LDL-C was calculated using the baseline LDL-C value and the final LDL-C value measured for each dose. […]
# This was an open-label, dose-finding, 3-period, 3-treatment study using successively escalating doses of 300 mg, 600 mg, and 900 mg gemcabene calcium salt hydrate Crystal Form 1 having PSD90 of 52 μm in patients clinically diagnosed with familial hypercholesterolemia (FH). […] Plasma from these samples were analyzed for gemcabene concentrations and the data used for PK analysis. […]
# [4] = human, in vivo
# Protocol: An open-label, two-sequence, cross-over study to assess the steady-state effects of gemcabene calcium on the single-dose pharmacokinetics (PK) of oral contraceptive tablets in healthy female subjects was conducted with 300 mg tablets containing gemcabene calcium salt hydrate Crystal Form 1 having PSD90 of 52 μm (film-coated Tablet F).
# The population for this study was generally healthy, adult female subjects of childbearing potential (≥18 to ≤35 years of age). This population supports the overall objective of the study to evaluate the effect of 600 mg of gemcabene calcium salt hydrate Crystal Form 1 having PSD90 of 52 μm at steady-state on the PK of a single dose of ON 1/35 (Ortho Novum 1/35; combined ethinyl estradiol/norethindrone oral contraceptive). The primary objective of this study was to assess the effect of daily 600 mg of gemcabene calcium salt hydrate Crystal Form 1 having PSD90 of 52 μm at steady-state on the pharmacokinetics (PK) of ON 1/35. The secondary objectives of this study were to assess the safety and tolerability of daily gemcabene 600 mg in combination with a single-dose ON 1/35 and to assess the steady-state PK of 600 mg of gemcabene calcium salt hydrate Crystal Form 1 having PSD90 of 52 μm (film-coated Tablet F×2).
# Throughout the study, 2 (12.5%) subjects in Treatment A; 4 (26.7%) subjects during gemcabene alone treatment of Treatment B, and 3 (20%) subjects during gemcabene with ON 1/35 treatment of Treatment B, had treatment-emergent adverse events (TEAEs). […] All TEAEs were considered to be mild or moderate in severity.
compound,measurement,setting,value
"CC(C)(CCCCOCCCCC(C)(C)C(=O)O)C(=O)O.[Ca] [6-(5-Carboxy-5-methyl-hexyloxy)-2,2-dimethylhexanoic acid calcium]",mean LDL-C reduction,[1],about 21%
same,solubility,"[2]; organic solvent or mixture, Acetone, heated to 40° C. between additions",< 10000 µg/mL
same,solubility,"[2]; organic solvent or mixture, Ethanol, heated to 60° C. between additions",< 10000 µg/mL
same,solubility,"[2]; organic solvent or mixture, Ethyl Acetate, heated to 60° C. between additions",< 10000 µg/mL
same,solubility,"[2]; organic solvent or mixture, t-Butyl Methyl Ether (t-BME), heated to 40° C. between additions",< 10000 µg/mL
same,solubility,"[2]; Water, heated to 60° C. between additions",33000 µg/mL
same,LDL-C reduction compared to baseline,"[3]; 300 mg oral QD, 4 weeks",55.2%
same,LDL-C reduction compared to baseline,"[3]; 600 mg oral QD, 8 weeks",49.8%
same,LDL-C reduction compared to baseline,"[3]; 900 mg oral QD, 12 weeks",54.5%
"CC(C)(CCCCOCCCCC(C)(C)C(=O)O)C(=O)O [gemcabene, 6-(5-carboxy-5-methyl-hexyloxy)-2,2-dimethyl-hexanoic acid]",subjects with a drug-related TEAE (constipation),[4]; female,1 subject
same,serious adverse events (SAEs),[4],no serious adverse events
same,tolerability,[4],well tolerated
